Assay results: patent US20250144067A1, “PERSONALIZED STARVATION THERAPY FOR CANCER” (Faeth Therapeutics, Inc., priority 2021, published 2025)
Structures can show the parent of a compound that is named as a salt. Where two headings read alike, the source gives them in different places. Ends that are not written are not given here.

Columns and labels:
[1] = system: NCI-H292 lung cancer cells; experiment: FDA drug screening, complete media vs cholesterol-free media with simvastatin (TABLE 2); format: cell-based, human
[2] = system: NCI-H292 lung cancer cells; experiment: FDA drug screening, complete media vs cholesterol-free media without statin (TABLE 1); format: cell-based, human
[3] = NCI-H292 cells, FDA library drug in cholesterol-free media with simvastatin 0.04 μM
[4] = NCI-H292 cells, FDA library drug in complete media
[5] = complete media vs cholesterol-free media + simvastatin (0.04 μM), >0 enhanced anti-cancer activity, about 0 neutral, <0 antagonist
[6] = Complete minus Cholesterol-free, greater than 0 enhanced anti-cancer activity, about 0 neutral, below 0 antagonist
[7] = NCI-H292 cells, FDA drug library screen, cholesterol-free media without statin
[8] = NCI-H292 cells, FDA drug library screen, complete media
[9] = NCI-H292 cells, drug in cholesterol-free media with simvastatin 0.04 μM
[10] = NCI-H292 cells, drug in complete media
[11] = Complete minus Cholesterol-free, >0 enhanced anti-cancer activity, about 0 neutral, <0 antagonist
[12] = NCI-H292 cells, cholesterol-free media without statin, FDA drug library screen
[13] = NCI-H292 cells, complete media, FDA drug library screen
[14] = NCI-H292 cells, FDA drug library screen, cholesterol-free media with simvastatin 0.04 μM
[15] = complete media minus cholesterol-free media + simvastatin, >0 enhanced anti-cancer activity, about 0 neutral, <0 antagonist
[16] = NCI-H292 cells, cholesterol-free media without statin
[17] = complete vs cholesterol-free media, greater than 0 enhanced anti-cancer activity, about 0 neutral, below 0 antagonists
[18] = NCI-H292 cells, cholesterol-free media with simvastatin 0.04 μM, FDA drug library screen (TABLE 2)
[19] = NCI-H292 cells, complete media, FDA drug library screen (TABLE 2)
[20] = complete media vs cholesterol-free media + simvastatin (0.04 μM), […]
[21] = Complete minus Cholesterol-free, […]
[22] = Complete minus Cholesterol-free, greater than 0 enhanced anti-cancer activity, about 0 neutral, below 0 antagonists
[23] = NCI-H292 cells in cholesterol-free media without statin
[24] = NCI-H292 cells in complete media
[25] = complete media minus cholesterol-free media + simvastatin, […]

COc1ccc(CN2CCN(C(c3ccc(F)cc3)c3ccc(F)cc3)CC2)c(OC)c1OC [Lomerizine dihydrochloride]
Cholesterol-free media + simvastatin (0.04 μM) [1, 3]: 1.178 | Complete Media [1, 4]: 0.8678 | Difference [1, 5]: −0.31 | Difference [2, 6]: −0.12 | Cholesterol-free [2, 7]: 1.023 | Complete [2, 8]: 0.8999

CCCCCCCCCCCCCCCCOP(=O)([O-])OCC[N+](C)(C)C [Miltefosine]
Cholesterol-free media + simvastatin (0.04 μM) [1, 9]: 1.237 | Complete Media [1, 10]: 0.9911 | Difference [1, 5]: −0.25 | Difference [2, 11]: −0.07 | Cholesterol-free [2, 12]: 1.003 | Complete [2, 13]: 0.9345

COc1ccccc1OCC(O)CO (stereo not drawn) [Guaifenesin]
Cholesterol-free media + simvastatin (0.04 μM) [1, 14]: 1.078 | Complete Media [1, 8]: 1.326 | Difference [1, 15]: 0.25 | Cholesterol-free [2, 16]: 1.204 | Complete ([2]; NCI-H292 cells, complete media): 0.8523 | Difference [2, 17]: −0.35

O=C1OC2(c3ccc(O)cc3Oc3cc(O)ccc32)c2ccccc21 [Fluorescein]
Cholesterol-free media + simvastatin (0.04 μM) [1, 9]: 1.054 | Complete Media [1, 10]: 0.8464 | Difference [1, 5]: −0.21 | Cholesterol-free [2, 16]: 1.153 | Complete ([2]; NCI-H292 cells, complete media): 0.6958 | Difference [2, 17]: −0.46

Benztropine (mesylate)
Cholesterol-free media + simvastatin (0.04 μM) [1]: 0.7872 | Complete Media [1]: 0.8586 | Difference [1]: 0.07 | Cholesterol-free [2]: 0.859 | Complete [2]: 0.7883 | Difference [2]: −0.07

COc1ccccc1Oc1c(NS(=O)(=O)c2ccc(C(C)(C)C)cc2)nc(-c2ncccn2)nc1OCCO [Bosentan]
Cholesterol-free media + simvastatin (0.04 μM) [1, 18]: 1.122 | Complete Media [1, 19]: 1.122 | Difference ([1]; complete media minus cholesterol-free media + simvastatin (0.04 μM), >0 enhanced anti-cancer activity, about 0 neutral, <0 antagonist): 0.00 | Difference [2, 11]: −0.05 | Cholesterol-free [2, 12]: 1.038 | Complete [2, 13]: 0.9904

CC(C)NCC(O)COc1ccc(CCOCC2CC2)cc1 (stereo not drawn) [Betaxolol (hydrochloride)]
Cholesterol-free media + simvastatin (0.04 μM) ([1]; NCI-H292 cells, cholesterol-free media with simvastatin 0.04 μM, cell growth value in FDA drug screen): 1.08 | Complete Media ([1]; NCI-H292 cells, complete media, cell growth value in FDA drug screen): 1.11 | Difference [1, 15]: 0.03 | Difference [2, 11]: −0.02 | Cholesterol-free [2, 12]: 0.8929 | Complete [2, 13]: 0.8739

Cc1cc(=O)n(-c2ccccc2)n1C [Antipyrine]
Cholesterol-free media + simvastatin (0.04 μM) [1, 14]: 0.9785 | Complete Media [1, 8]: 0.8535 | Difference [1, 20]: −0.13 | Difference [2, 21]: −0.24 | Cholesterol-free [2, 16]: 1.066 | Complete ([2]; NCI-H292 cells, complete media): 0.8256

Almotriptan (malate)
Cholesterol-free media + simvastatin (0.04 μM) [1, 3]: 1.642 | Difference [1, 20]: −0.54 | Difference [2, 21]: −0.08 | Cholesterol-free [2, 7]: 0.8422 | Complete [2, 8]: 0.7605

CN(C)CCOCC(=O)NC12CC3CC(CC(C3)C1)C2 [Tromantadine (hydrochloride)]
Cholesterol-free media + simvastatin (0.04 μM) [1, 9]: 1.251 | Complete Media [1, 10]: 1.005 | Difference [1, 5]: −0.25 | Difference [2, 11]: −0.20 | Cholesterol-free [2, 16]: 0.9414 | Complete ([2]; NCI-H292 cells, complete media): 0.7414

C#C[C@]1(O)C=C[C@H]2[C@@H]3CCC4=CC(=O)CC[C@@H]4[C@H]3CC[C@@]21CC [Gestodene]
Cholesterol-free media + simvastatin (0.04 μM) [1, 3]: 1.543 | Complete Media [1, 4]: 1.003 | Difference [1, 5]: −0.54 | Difference [2, 6]: −0.11 | Cholesterol-free [2, 7]: 1.134 | Complete [2, 8]: 1.023

CCN(c1cc(-c2ccc(CN3CCOCC3)cc2)cc(C(=O)NCc2c(C)cc(C)[nH]c2=O)c1C)C1CCOCC1 [Tazemetostat]
Cholesterol-free media + simvastatin (0.04 μM) [1, 14]: 0.9335 | Complete Media [1, 8]: 1.59 | Difference [1, 15]: 0.66 | Difference [2, 22]: −0.49 | Cholesterol-free [2, 23]: 1.722 | Complete [2, 24]: 1.228

C[N+](C)(C)CC(=O)O [Betaine (hydrochloride)]
Cholesterol-free media + simvastatin (0.04 μM) [1, 9]: 1.292 | Complete Media [1, 10]: 1.099 | Difference [1, 5]: −0.19 | Difference [2, 22]: −0.76 | Cholesterol-free [2, 23]: 1.594 | Complete [2, 24]: 0.8295

C=CC1=C(C(=O)O)N2C(=O)[C@@H](NC(=O)/C(=N\O)c3csc(N)n3)[C@H]2SC1 [Cefdinir]
Cholesterol-free media + simvastatin (0.04 μM) [1, 9]: 1.206 | Complete Media [1, 10]: 0.987 | Difference [1, 5]: −0.22 | Difference [2, 11]: −0.24 | Cholesterol-free [2, 16]: 1.244 | Complete ([2]; NCI-H292 cells, complete media): 0.9998

C[C@H]1C(=O)O[C@@H]2CCN3CC=C(COC(=O)[C@](C)(O)[C@]1(C)O)[C@H]23 [Monocrotaline]
Cholesterol-free media + simvastatin (0.04 μM) [1, 9]: 1.209 | Complete Media [1, 10]: 1.046 | Difference [1, 20]: −0.16 | Difference [2, 21]: −0.18 | Cholesterol-free [2, 7]: 1.01 | Complete [2, 8]: 0.8289

Br.CCN1C[C@]2(OC(=O)c3ccccc3NC(C)=O)CC[C@H](OC)[C@@]34[C@@H]2C[C@@H]([C@@H]13)[C@@]1(O)C[C@H](OC)[C@H]2C[C@@H]4[C@]1(O)[C@H]2OC [Lappaconitine (hydrobromide)]
Cholesterol-free media + simvastatin (0.04 μM) [1, 14]: 1.123 | Complete Media [1, 8]: 1.322 | Difference [1, 25]: 0.20 | Difference [2, 21]: −0.05 | Cholesterol-free [2, 12]: 1.017 | Complete [2, 13]: 0.9704

Dihydroergotamine (mesylate)
Complete Media [1, 10]: 0.9713 | Difference [1, 20]: −0.18 | Difference [2, 21]: −0.20 | Cholesterol-free [2, 16]: 1.021 | Complete ([2]; NCI-H292 cells, complete media): 0.8213

CNCc1ccc(-c2[nH]c3cc(F)cc4c3c2CCNC4=O)cc1 [Rucaparib (Camsylate)]
Cholesterol-free media + simvastatin (0.04 μM) [1, 3]: 1.277 | Complete Media [1, 4]: 0.994 | Difference [1, 5]: −0.28 | Difference [2, 11]: −0.26 | Cholesterol-free [2, 16]: 1.063 | Complete ([2]; NCI-H292 cells, complete media): 0.7996

Angiotensin II human (acetate) (DRVYIHPF; also: acetate salt; UniProt P01019 25-32, looked up)
Complete Media [1, 8]: 1.355 | Difference [1, 25]: 0.21 | Difference [2, 21]: −0.23 | Cholesterol-free [2, 16]: 0.9412 | Complete ([2]; NCI-H292 cells, complete media): 0.7158

Cc1ncc([N+](=O)[O-])n1CCO [Metronidazole]
Cholesterol-free media + simvastatin (0.04 μM) [1, 3]: 1.741 | Complete Media [1, 4]: 1.475 | Difference [1, 5]: −0.27 | Difference [2, 11]: −0.03 | Cholesterol-free [2, 12]: 1.006 | Complete [2, 13]: 0.9754

CCC[C@@]1(CCc2ccccc2)CC(O)=C([C@H](CC)c2cccc(NS(=O)(=O)c3ccc(C(F)(F)F)cn3)c2)C(=O)O1 [Tipranavir]
Cholesterol-free media + simvastatin (0.04 μM) [1, 18]: 1.22 | Complete Media [1, 19]: 1.177 | Difference ([1]; complete media minus cholesterol-free media + simvastatin (0.04 μM), […]): −0.04 | Difference [2, 21]: −0.27 | Cholesterol-free [2, 16]: 0.9401 | Complete ([2]; NCI-H292 cells, complete media): 0.6703

OC[C@H]1O[C@@H](n2cnc3c2NC=NC[C@H]3O)C[C@@H]1O [Pentostatin]
Cholesterol-free media + simvastatin (0.04 μM) [1]: 1.49 | Complete Media [1]: 1.245 | Difference [1]: −0.25 | Cholesterol-free [2]: 1.242 | Complete [2]: 0.8025 | Difference [2]: −0.44

C[C@@H]1O[C@@H](OC[C@H]2O[C@@H](Oc3c(-c4ccc(O)c(O)c4)oc4cc(O)cc(O)c4c3=O)[C@H](O)[C@@H](O)[C@@H]2O)[C@H](O)[C@H](O)[C@H]1O [Rutin]
Cholesterol-free media + simvastatin (0.04 μM) [1, 9]: 1.71 | Complete Media [1, 10]: 1.488 | Difference [1, 5]: −0.22 | Cholesterol-free [2, 12]: 1.229 | Complete [2, 13]: 1.309 | Difference ([2]; complete vs cholesterol-free media, >0 enhanced anti-cancer activity, about 0 neutral, <0 antagonist): 0.08
